The values that follow come from ChEMBL document CHEMBL3785043, “Exploring the purine core of 3'-C-ethynyladenosine (EAdo) in search of novel nucleoside therapeutics” (Bioorg Med Chem Lett, 2016).

pEC50, pIC50: −log10 of the molar value. Calls of active or inactive are those of the source. No cut-off for these calls is given here. A value given as a limit tells only on which side of the number the result lay.

One assay has as its system Influenza B virus. Nature of the assay: Antiviral activity against Influenza virus B at 100 uM. In kind it is functional, organism-based.
The test system of assay [1] is Influenza A virus. Nature of the assay: Antiviral activity against Influenza virus A H3N2 at 100 uM. In kind it is functional, organism-based.
Assay [2] relates to Human alphaherpesvirus 1. Nature of the assay: Antiviral activity against Aciclovir-resistant thymidine kinase-deficient HSV-1 KOS at 100 uM. In kind it is functional, organism-based.
The next assay deals with HeLa. Description: Cytostatic activity against human HeLa cells after 72 hrs by Coulter counter method. In kind it is functional, cell-based.
Assay [3] deals with Influenza A virus. Description: Antiviral activity against Influenza virus A H1N1 at 100 uM. In kind it is functional, organism-based.
In assay [4] the test system is Vesicular stomatitis virus. Nature of the assay: Antiviral activity against VSV at 100 uM. In kind it is functional, organism-based.
The test system of assay [5] is Human betaherpesvirus 5. Nature of the assay: Antiviral activity against Human cytomegalovirus AD169 at 100 uM. In kind it is functional, organism-based.
Another assay concerns Coxsackievirus B4. Nature of the assay: Antiviral activity against Coxsackie B4 virus at 100 uM. It counts as functional, organism-based.
Assay [6] deals with Human immunodeficiency virus 2. Description: Antiviral activity against HIV2 ROD infected in human MT4 cells at 100 uM preincubated with cells for 30 mins followed by HIV inoculation measured after 4 to 5 days by microscopic analysis. The note with it: ISOLATE ROD. It counts as functional, organism-based.
For assay [7], the system named is Human immunodeficiency virus 1. Description: Antiviral activity against HIV1 3B infected in human MT4 cells at 100 uM preincubated with cells for 30 mins followed by HIV inoculation measured after 4 to 5 days by microscopic analysis. In kind it is functional, organism-based.
The subject of assay [8] is Human alphaherpesvirus 2. Nature of the assay: Antiviral activity against HSV-2 lyons at 100 uM. In kind it is functional, organism-based.
The next assay has as its system L1210. Description: Cytostatic activity against mouse L1210 cells after 48 hrs by Coulter counter method. In kind it is functional, cell-based. Conditions: L1210, 48 h.
Assay [9] deals with Respiratory syncytial virus. Nature of the assay: Antiviral activity against Respiratory syncytial virus long at 100 uM. In kind it is functional, organism-based.
In the next assay the test system is Human adenovirus 2. Nature of the assay: Antiviral activity against Adenovirus 2 at 100 uM. It counts as functional, organism-based.
The test system of assay [10] is Mammalian orthoreovirus 1. Nature of the assay: Antiviral activity against Reovirus 1 at 100 uM. In kind it is functional.
Assay [11] has as its system Human betaherpesvirus 5. Nature of the assay: Antiviral activity against Human cytomegalovirus Davis at 100 uM. In kind it is functional, organism-based.
Assay [12] has as its system Human alphaherpesvirus 1. Nature of the assay: Antiviral activity against HSV-1 KOS at 100 uM. In kind it is functional, organism-based.
The subject of another assay is Sindbis virus. Description: Antiviral activity against Sindbis virus at 100 uM. In kind it is functional, organism-based.
Assay [13] deals with Human immunodeficiency virus 1. Nature of the assay: Antiviral activity against HIV 1 NL4-3 infected in human MT4 cells at 100 uM preincubated with cells for 30 mins followed by HIV inoculation measured after 4 to 5 days by microscopic analysis. In kind it is functional, organism-based.
Another assay concerns CCRF-CEM. Nature of the assay: Cytostatic activity against human CEM cells after 72 hrs by Coulter counter method. It counts as functional, cell-based.
The test system of a further assay is Punta Toro virus. Nature of the assay: Antiviral activity against Punta Toro virus at 100 uM. It counts as functional, organism-based.
Assay [14] relates to Human alphaherpesvirus 2. Nature of the assay: Antiviral activity against HSV-2 G at 100 uM. In kind it is functional, organism-based. Conditions: strain G.
The test system of a further assay is Human respirovirus 3. Description: Antiviral activity against parainfluenza virus 3 at 100 uM. It counts as functional, organism-based.
A further assay has as its system Vaccinia virus. Description: Antiviral activity against Vaccinia virus Lederle. It counts as functional, organism-based. The note with it: Orthopoxvirus vaccinia.
Assay [15] deals with Adenosine receptor A3 (Homo sapiens) (UniProt P0DMS8). Nature of the assay: Agonist activity at adenosine A3 receptor (unknown origin) assessed as inhibition of forskolin-stimulated adenylyl cyclase activity at 10 uM. In kind it is functional.
Adenosine receptor A3 (Homo sapiens), sequence (P0DMS8 whole entry): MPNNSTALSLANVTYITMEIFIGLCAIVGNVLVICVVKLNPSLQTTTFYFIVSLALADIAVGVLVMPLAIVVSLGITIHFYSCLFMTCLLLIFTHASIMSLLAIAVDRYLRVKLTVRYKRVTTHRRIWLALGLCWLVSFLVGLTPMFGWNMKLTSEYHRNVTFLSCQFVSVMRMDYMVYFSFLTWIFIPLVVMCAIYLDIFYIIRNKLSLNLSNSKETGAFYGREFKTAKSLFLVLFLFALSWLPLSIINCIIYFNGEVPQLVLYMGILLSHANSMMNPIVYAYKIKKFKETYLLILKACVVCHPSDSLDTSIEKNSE

In general, pIC50 refers to −log10 of the IC50, conventionally taken in molar units. With `C#C[C@@]1(O)[C@@H](CO)O[C@@H](n2cnc3c(OC)nc(OC)nc32)[C@@H]1O`, the result (in the assay with Influenza B virus; in the assay with Influenza A virus [1]; in the assay on Human alphaherpesvirus 1 [2]; in the assay on Influenza A virus [3]; in assay [4]; with Human betaherpesvirus 5 [5]) was inactive. Moreover, the result (with Coxsackievirus B4; in assay [6]; in assay [7]; in the assay on Human alphaherpesvirus 2 [8]; in assay [9]; with Human adenovirus 2) was inactive. The result (in assay [10]; with Human betaherpesvirus 5 [11]; with Human alphaherpesvirus 1 [12]; in the assay on Sindbis virus; in assay [13]; in the assay on Punta Toro virus) was inactive. For the same compound, the outcome in the assay on Human alphaherpesvirus 2 [14] and with Human respirovirus 3 was inactive. Besides, the pIC50 in the assay with HeLa, in the assay with L1210 and in the assay with CCRF-CEM was under 3.60 each time.
As a reminder, the pEC50 is −log10 of the EC50, conventionally taken in molar units. Read a high pEC50 as a small EC50. On to `C#C[C@@]1(O)[C@@H](CO)O[C@@H](n2cnc3c(Cl)nc(N)nc32)[C@@H]1O`, for which the outcome (in the assay with Influenza B virus; in the assay on Influenza A virus [1]; with Human alphaherpesvirus 1 [2]; in the assay on Influenza A virus [3]; in [4]; in the assay with Human betaherpesvirus 5 [5]) was inactive. Further, the result (with Coxsackievirus B4; in [6]; in assay [7]; in the assay on Human alphaherpesvirus 2 [8]; in [9]; with Human adenovirus 2) was inactive. The result (in assay [10]; in the assay on Human betaherpesvirus 5 [11]; with Human alphaherpesvirus 1 [12]; in the assay on Sindbis virus; in assay [13]; in the assay with Punta Toro virus) was inactive. Further, the outcome in the assay on Human alphaherpesvirus 2 [14] and in the assay on Human respirovirus 3 was inactive. In addition, the pIC50 in the assay with HeLa, in the assay with L1210 and with CCRF-CEM was under 3.60 each time. In addition, in the assay on Vaccinia virus, the pEC50 is 4.29.
For `C#C[C@@]1(O)[C@@H](CO)O[C@@H](n2cnc3c(N)nc(Cl)nc32)[C@@H]1O`, the result (in the assay with Influenza B virus; in the assay with Influenza A virus [1]; in the assay with Human alphaherpesvirus 1 [2]; with Influenza A virus [3]; in assay [4]; with Human betaherpesvirus 5 [5]) was inactive. For the same compound, the outcome (with Coxsackievirus B4; in assay [6]; in assay [7]; in the assay with Human alphaherpesvirus 2 [8]; in assay [9]; with Human adenovirus 2) was inactive. The result (in [10]; in the assay on Human betaherpesvirus 5 [11]; in the assay with Human alphaherpesvirus 1 [12]; in the assay with Sindbis virus; in [13]; with Punta Toro virus) was inactive. The outcome in the assay on Human alphaherpesvirus 2 [14] and in the assay on Human respirovirus 3 was inactive. The values for the negative logarithm of the IC50 (pIC50) in the assay on HeLa, in the assay on L1210 and in the assay on CCRF-CEM were under 3.60, 3.78 and under 3.60, respectively.
For `C#C[C@@]1(O)[C@@H](CO)O[C@@H](n2cnc3c(OC)nc(N)nc32)[C@@H]1O`, the outcome (with Influenza B virus; with Influenza A virus [1]; with Human alphaherpesvirus 1 [2]; in the assay with Influenza A virus [3]; in assay [4]; in the assay with Human betaherpesvirus 5 [5]) was inactive. Further, the outcome (in the assay on Coxsackievirus B4; in assay [6]; in assay [7]; with Human alphaherpesvirus 2 [8]; in assay [9]; in the assay with Human adenovirus 2) was inactive. Also, the outcome (in [10]; in the assay on Human betaherpesvirus 5 [11]; with Human alphaherpesvirus 1 [12]; with Sindbis virus; in [13]; with Punta Toro virus) was inactive. Moreover, the outcome with Human alphaherpesvirus 2 [14] and in the assay on Human respirovirus 3 was inactive. The pIC50 with HeLa, in the assay with L1210 and in the assay with CCRF-CEM was under 3.60 throughout.
What is called inhibition is the relative decrease from the control value, in per cent. On to `C#C[C@@]1(O)[C@@H](CO)O[C@@H](n2cnc3c(NC4CCCC4)nc(Cl)nc32)[C@@H]1O`, for which the outcome (in the assay with Influenza B virus; in the assay on Influenza A virus [1]; in the assay on Human alphaherpesvirus 1 [2]; in the assay with Influenza A virus [3]; in assay [4]; in the assay with Human betaherpesvirus 5 [5]) was inactive. Moreover, the result (in the assay with Coxsackievirus B4; in assay [6]; in [7]; in the assay on Human alphaherpesvirus 2 [8]; in [9]; in the assay on Human adenovirus 2) was inactive. Further, the result (in [10]; with Human betaherpesvirus 5 [11]; with Human alphaherpesvirus 1 [12]; in the assay with Sindbis virus; in assay [13]; in the assay on Punta Toro virus) was inactive. The outcome with Human alphaherpesvirus 2 [14] and with Human respirovirus 3 was inactive. Also, in assay [15], the inhibition worked out at 70%. Moreover, the figures for the pIC50 in the assay with HeLa, with L1210 and with CCRF-CEM were 3.82, 3.77 and 3.98, respectively.
As to `C#C[C@@]1(O)[C@@H](CO)O[C@@H](n2cnc3c(N)nc(N)nc32)[C@@H]1O`, the outcome (with Influenza B virus; with Influenza A virus [1]; in the assay with Human alphaherpesvirus 1 [2]; with Influenza A virus [3]; in [4]; with Human betaherpesvirus 5 [5]) was inactive. Besides, the outcome (in the assay on Coxsackievirus B4; in assay [6]; in assay [7]; in the assay with Human alphaherpesvirus 2 [8]; in assay [9]; in the assay with Human adenovirus 2) was inactive. Further, the outcome (in [10]; with Human betaherpesvirus 5 [11]; with Human alphaherpesvirus 1 [12]; in the assay on Sindbis virus; in assay [13]; in the assay with Punta Toro virus) was inactive. For the same compound, the outcome in the assay on Human alphaherpesvirus 2 [14] and with Human respirovirus 3 was inactive. The values for the pIC50 in the assay with HeLa, with L1210 and with CCRF-CEM were 3.91, 3.71 and at most 3.60, respectively.
Turning to `C#C[C@@]1(O)[C@@H](CO)O[C@@H](n2cnc3c(OC)nc(Cl)nc32)[C@@H]1O`, the result (with Influenza B virus; with Influenza A virus [1]; with Human alphaherpesvirus 1 [2]; in the assay with Influenza A virus [3]; in [4]; with Human betaherpesvirus 5 [5]) was inactive. In addition, the outcome (in the assay on Coxsackievirus B4; in [6]; in assay [7]; with Human alphaherpesvirus 2 [8]; in [9]; in the assay with Human adenovirus 2) was inactive. The result (in [10]; with Human betaherpesvirus 5 [11]; in the assay with Human alphaherpesvirus 1 [12]; with Sindbis virus; in [13]; in the assay on Punta Toro virus) was inactive. The result in the assay on Human alphaherpesvirus 2 [14] and in the assay with Human respirovirus 3 was inactive. The values for the pIC50 with HeLa, in the assay with L1210 and with CCRF-CEM were 3.76, under 3.60 and 3.68, respectively.
